Two compounds from ChEMBL document CHEMBL5096239, “Two Binding Sites of SARS-CoV-2 Macrodomain 3 Probed by Oxaprozin and Meclomen” (J Med Chem, 2022) can be followed below.

The target of test [1] is T1, Replicase polyprotein 1ab (Severe acute respiratory syndrome coronavirus 2, UniProt P0DTD1). Briefly: Displacement of carboxyfluorescein-labelled bbc3-(dG)14 from SARS-CoV-2 Mac3 by fluorescence polarization analysis.
The target of test [2] is T1, Replicase polyprotein 1ab. Put plainly: Displacement of carboxyfluorescein-labelled p53-(dG)14 from SARS-CoV-2 Mac3 by fluorescence polarization analysis.
Test [3] deals with Replicase polyprotein 1ab (Severe acute respiratory syndrome coronavirus 2) (UniProt P0DTD1). Briefly: Binding affinity to 15N-labelled His6-tagged SARS-CoV-2 Mac3 (551 to 675 residues) expressed in Escherichia coli Rosetta assessed as chemical shift perturbations at binding site I (M630, Y634, V635, T636, and S660 residues) at ligand to protein molar ratio of 4:1 by NMR HSQC spectral analysis.

In another test the target is Replicase polyprotein 1a (Severe acute respiratory syndrome-related coronavirus, UniProt P0C6U8). Briefly: Binding affinity to 15N-labelled His6-tagged SARS-CoV Mac3 (527 to 652 residue) expressed in Escherichia coli Rosetta assessed as chemical shift perturbations by NMR HSQC spectral analysis.
The target of test [4] is Replicase polyprotein 1a (Severe acute respiratory syndrome-related coronavirus) (UniProt P0C6U8). Put plainly: Binding affinity to 15N-labelled His6-tagged SARS-CoV Mac3 (527 to 652 residue) expressed in Escherichia coli Rosetta assessed as chemical shift perturbations at binding site 1 (1556, T559, M606, T612, S636, and S637 residues) by NMR HSQC spectral analysis.
Test [5] addresses T1, Replicase polyprotein 1ab. Put plainly: Binding affinity to 15N-labelled His6-tagged SARS-CoV-2 Mac3 (551 to 675 residues) expressed in Escherichia coli Rosetta assessed as chemical shift perturbations by NMR HSQC spectral analysis.
Test [6] addresses Replicase polyprotein 1a (Severe acute respiratory syndrome-related coronavirus) (UniProt P0C6U8). Briefly: Binding affinity to 15N-labelled His6-tagged SARS-CoV Mac3 (527 to 652 residue) expressed in Escherichia coli Rosetta assessed as chemical shift perturbations at binding site 1 (C550, V553, 1556, and M606 residues) by NMR HSQC spectral analysis.
Test [7] concerns the target Replicase polyprotein 1ab (Severe acute respiratory syndrome coronavirus 2) (UniProt P0DTD1). Briefly: Binding affinity to 15N-labelled His6-tagged SARS-CoV-2 Mac3 (551 to 675 residues) expressed in Escherichia coli Rosetta assessed as chemical shift perturbations at binding site II (Q594, E595, S609, and M630 residues) at ligand to protein molar ratio of 4:1 by NMR HSQC spectral analysis.

The structures appear in SMILES notation. Activity calls are given as the source filed them. No cut-off for these calls is given here.

Consider `Cc1ccc(Cl)c(Nc2ccccc2C(=O)O)c1Cl` [MECLOFENAMIC ACID], for which the inhibition constant Ki (as a rule, a measure of affinity in units of concentration, obtained from inhibition or displacement) in test [1] is 50 µM; in test [2] it was 200 µM. Further, the result in test [3] and in test [4] was Active. Also, the Kd – broadly, the equilibrium constant for the complex coming apart – on Replicase polyprotein 1a turned out to be 220 µM; in test [5], 900 µM.
Consider `O=C(O)CCc1nc(-c2ccccc2)c(-c2ccccc2)o1` [OXAPROZIN], for which the Ki came to 400 µM in test [1] and 900 µM in test [2]. Also, the outcome in test [6] and in test [7] was Active. Moreover, the Kd on Replicase polyprotein 1a amounted to 1000 µM; in test [5] it was 1200 µM.
